For series [1], the target named is T1, rat μ-opioid receptor (Rattus norvegicus, UniProt P33535).
T1 construct: expressed in transfected cells; membranes prepared
Put plainly: [35S]GTPγS binding assay, MOR. The series is classed as biochemical. The conditions noted are these: for functional profile at μ opioid receptor: G protein activation; for Kb: read-out: Antagonist activity MOR Ke. Background: GTPγS is a poorly hydrolysed GTP analogue; its binding reports G protein activation.

For series [2], the target named is T1, rat μ-opioid receptor. Put plainly: Receptor binding assay, [3H]DAMGO competition.
Series [3] concerns the target T2, rat δ-opioid receptor (Rattus norvegicus, UniProt P33533).
T2 construct: expressed in transfected cells; membranes prepared
The series is described as follows: Receptor binding assay, [3H]DPDPE competition. Particulars: read-out: δ binding affinity Ki.

Series [4] concerns the target T3, human κ-opioid receptor (Homo sapiens, UniProt P41145).
T3 construct: expressed in transfected cells; membranes prepared
Put plainly: Receptor binding assay, [3H]U69593 competition. The conditions noted are these: CHO cell membranes, 1.5 nM [3H]U69593; read-out: κ binding affinity Ki.

The target in series [5] is T3, human κ-opioid receptor. The series is described as follows: [35S]GTPγS binding assay, KOR. The series is classed as biochemical.
The target of series [6] is T2, rat δ-opioid receptor. Put plainly: [35S]GTPγS binding assay, DOR. The series is classed as biochemical. Particulars: read-out: Agonist activity DOR Emax (agonist efficacy at 10 μM).
Series [7] concerns mice. Put plainly: Hot plate test. The series is classed as in vivo. The procedure:
(§1) Kunming strain male and female mice weighing 20 to 24 g were obtained from the Laboratory Animal Center, Chinese Academy of Sciences (Shanghai, China). Mice were housed in groups in a room maintained in a 12/12 h light/dark cycle in a temperature controlled environment with free access to food and water. All research protocols were approved by the Animal Care and Use Committee of Shanghai Institute of Materia Medica, Chinese Academy of Sciences. All experimental procedures were in strict accordance with the National Institutes of Health Guide for the Care and Use of Laboratory Animals.
Hot plate test was performed according to the method described previously[31],[34],[35]. Briefly, mice were placed on a 55 °C heated surface, the latency to licking or jumping was recorded. The cut-off time of 60 s was used to minimize tissue damage. Before formal study, the nociceptive response of each mouse was measured three times, and the mean of the 2nd and 3rd responses was used as pre-drug latency. The mouse not responding within 20 s was excluded. The percentage antinociception was calculated as 100× [(test latency-predrug latency)/(cut-off time -predrug latency)].
Background: Hot-plate and tail-flick tests time the reaction to a heat stimulus.

The test system of series [8] is mice. Put plainly: Abdominal constriction test. The series is classed as in vivo. Particulars: for effect of Dezocine on morphine-induced antinociception: 0.05 mg/kg Dezocine; for ED50: Mus musculus; for effect of antagonist pretreatment on Dezocine-produced antinociception: antagonist 20 mg/kg i.p., 24 h before 0.25 mg/kg Dezocine.
The subject of series [9] is mice. Put plainly: Formalin test. The series is classed as in vivo. Particulars: for ED50: Mus musculus, 0.25 h. The procedure: as §1
The formalin test was performed according to our previous work[35]. In brief, the amount of time that mice spent licking or flinching the injected hind paw was recorded after injected with 20 μl 1.0% formalin at the plantar surface of the right hind paw. The mice were observed fro 60 min. The first 10 min was recorded as the phase I, and the rest of time was recorded as phase II. Percentage of analgesia was calculated as 100× (time of control – time of drug)/time of control.

In series [10] the test system is mice. The series is described as follows: Rotorod test (sedation). The conditions noted are these: for sedative effect, rotarod test: 15 min after injection. The series is classed as in vivo. (In general: Falling from the rotarod earlier than controls is read as motor impairment.)
Series [11] has as its system mice. Also on record: method as in PMID 18353307, PMID 25816912. Particulars: 95% confidence limits in parentheses; cited from earlier work.
In series [12] the test system is mice. Also on record: method as in PMID 18353307, PMID 25816912. The conditions noted are these: 95% confidence limits in parentheses; cited from earlier work. The source holds these as a separate data set.
Series [13] has as its system mice. Also on record: method as in PMID 18353307, PMID 25816912. The conditions noted are these: 95% confidence limits in parentheses; cited from earlier work. The source holds these as a separate data set.
The mark [14] stands for this setting: mice, 15 min after drug administration, 95% confidence limits in parentheses.

These results are taken from article PMC6148296 (Scientific Reports, 2018).

The structures appear in SMILES notation. “And” between values parts separate entries of the source, which are not always exact repeats. Equal values may be shown once. “Also recorded” adds a separate entry of the source. Read-outs that look alike come from different tables or passages of the source. Marks after values point to notes of the source that are not given here.

Usually Emax stands for the greatest response seen or fitted, relative to the assay's reference. As for `C[C@@H](NC(=O)[C@@H](N)Cc1ccc(O)cc1)C(=O)NCC(=O)N(C)[C@@H](Cc1ccccc1)C(=O)NCCO` [DAMGO, [D-Ala2,N-Me-Phe4,Gly5-ol]-enkephalin], in [1] (0.1 nM [35S]GTPγS, percentage of stimulated binding over basal, read-out: Agonist activity MOR Emax), the Emax worked out at 241 ± 33.8%. Moreover, in [1], the “functional profile at μ opioid receptor” value is given as “full agonist efficacy”.

A word on the Ki: it is the dissociation constant of the complex between target and ligand, obtained from inhibition or displacement. The ED50 is the dose that gives a 50% effect, or the effect in half of the subjects. Regarding `C[C@@]12CCCCC[C@@H](Cc3ccc(O)cc31)[C@@H]2N` [Dezocine], in series [2] (from Ki values), the “selectivity for μ over δ opioid receptors” value came to 273 fold. Also, the “selectivity for μ over κ opioid receptors” value in [2] (from Ki values) came out at 15 fold. Moreover, the Ki was determined as 1.46 ± 0.1 nM in series [2] (read-out: µ binding affinity Ki), 399 ± 43.3 nM in series [3] and 22 ± 1.52 nM in series [4]. The “functional profile at μ opioid receptor” value in series [1] is “μ partial agonist”. The Emax at 10 µM was 45.8 ± 1.1% in series [1] (read-out: Agonist activity MOR Emax (agonist efficacy at 10 μM)); 33 to 45% in [5] (read-out: Agonist activity KOR Emax (agonist efficacy at 10 μM), at 10 μM, % of the maximal stimulation obtained with U50,488 H); 26.1 ± 1% in series [6]. Moreover, the Kb in [1] is 10.4 ± 4.9 nM; in [1] (rightward shift of DAMGO concentration-response curve, single dose method), 10.4 nM; in series [5] (rightward shift of U50,488 H concentration-response curve, single dose method, read-out: Antagonist activity KOR Ke), 324.1 nM and 324 nM. Moreover, the “functional profile at κ opioid receptor” value in [5] (G protein activation) is “κ partial agonist”. Moreover, in series [5] (at 10 μM, % of the maximal stimulation obtained with U50,488 H), the “Agonist activity KOR Emax (agonist efficacy at 10 μM)” value was 33.6 ± 2.4^d %. For the same molecule, the “maximal antinociceptive effect, hot-plate test” value in series [7] (at 7.5 mg/kg, bell-shaped dose-response curve) is “around 60%”. For the same molecule, the “duration of consistent high (close to peak) antinociceptive response” value in series [7] (hot-plate test, time course) is “up to 1 h”. Besides, the “onset of antinociceptive action” value in [7] (hot-plate test, time course) turned out to be 5 min. For the same molecule, in series [7] (i.v., s.c., or p.o.), the “maximal antinociception, hot-plate test, whatever the route of administration” value is recorded as “around 55%”. For the same molecule, the “effect of Dezocine on morphine-induced antinociception” value in series [8] (0.3 mg/kg morphine) is given as “did not affect”; in [8] (0.4 mg/kg morphine, p < 0.05) it was “significantly decreased; also recorded: significantly inhibited”. Further, the “effect of Dezocine co-administration on morphine antinociception” value in series [8] (0.125 mg/kg Dezocine and 0.3 mg/kg morphine) was “produced higher antinociception than morphine used alone”. Also, the “effect of Dezocine on U50,488H-induced antinociception” value in [8] (Dezocine pretreatment, U50,488 H 1.2 mg/kg i.p., without β-FNA) was “did not inhibit; also recorded: did not affect”. For the same molecule, the ED50 was 0.2 mg/kg in [8] (0.25 h, mice, 15 min after drug administration, 95% confidence limits in parentheses, read-out: Antinociception ED50 Abdominal constriction test); 0.2 to 0.4 mg/kg in series [8] (summary over abdominal constriction and formalin tests, read-out: ED50 values of Dezocine-induced antinociception); 0.4 mg/kg in series [9] (mice, 15 min after drug administration, 95% confidence limits in parentheses, read-out: Antinociception ED50 Formalin test Phase I); 0.4 mg/kg in series [9] (mice, 15 min after drug administration, 95% confidence limits in parentheses, read-out: Antinociception ED50 Formalin test Phase II). The “potency relative to morphine, abdominal constriction test” value in series [8] (ratio of ED50 values) is given as 4 fold. The “effect of Dezocine on U50,488H-induced antinociception in the presence of β-FNA” value in [8] (β-FNA pretreatment, U50,488 H 1.2 mg/kg i.p., p < 0.05) is given as “significantly decreased”. In [9] (setting [14]), the “Antinociception ED50 Formalin test Phase I” value is given as 0.4 (0.2–1.0) mg/kg. The “Antinociception ED50 Formalin test Phase II” value in series [9] (setting [14]) is 0.4 (0.2–0.9) mg/kg. Also, in series [9] (ratio of ED50 values), the “potency relative to morphine, formalin test phase I” value was “approximately 13 fold”. Moreover, in series [9] (ratio of ED50 values), the “potency relative to morphine, formalin test phase II” value is listed as 9 fold. Further, the “sedative effect, rotarod test” value in series [10] (2.5 mg/kg, trend, p = 0.0881) was “did not reach significant difference”; in series [10] (5 mg/kg, p < 0.05 vs saline) it was “produced significant sedation”; in series [10] (7.5 and 25 mg/kg), “the sedative effect diminished”. Besides, the “dose that produced sedative side effects (ceiling effect)” value in [10] (rotarod test) amounted to 5 mg/kg.

For the molecule `CN1CC[C@]23c4c5ccc(O)c4O[C@H]2[C@@H](O)C=C[C@H]3[C@H]1C5` [Morphine], in series [11], the “Antinociception ED50 Hot plate test” value is given as 6.9 (5.6–8.5)^a mg/kg. Besides, the “Antinociception ED50 Abdominal constriction test” value in series [12] is 0.8 (0.5–1.2)^a mg/kg. Besides, in series [13], the “Antinociception ED50 Formalin test Phase I” value is given as 5.1 (4.3–5.9)^b mg/kg and the “Antinociception ED50 Formalin test Phase II” value is recorded as 3.1 (2.8–3.3)^b mg/kg.

Consider `Oc1ccc2c3c1O[C@H]1c4[nH]c5c(c4C[C@@]4(O)[C@@H](C2)N(CC2CC2)CC[C@]314)C[C@@]1(O)[C@H]2Cc3ccc(O)c4c3[C@@]1(CCN2CC1CC1)[C@H]5O4` [nor-BNI, nor-binaltorphimine], for which the “effect of antagonist pretreatment on Dezocine-produced antinociception” value in series [8] (p < 0.05) is given as “significantly decreased”.

As for `COC(=O)/C=C/C(=O)N[C@@H]1CC[C@@]2(O)[C@H]3Cc4ccc(O)c5c4[C@@]2(CCN3CC2CC2)[C@H]1O5` [β-FNA, β-funaltrexamine], the “effect of antagonist pretreatment on Dezocine-produced antinociception” value in series [8] (p < 0.05) was “significantly decreased”.
